In patent publication US20080269213A1, “8-Hydroxyquinoline compounds and methods thereof” (Wyeth, priority 2006, published 2008):
“And” between values parts separate entries of the source, which are not always exact repeats. Equal entries are not always repeated. Where two headings read alike, the source gives them in different places.

Legend:
[1] = target: T1, recombinant human Aggrecanase-2 Agg2-Phe628 (Homo sapiens, UniProt Q9UNA0); experiment: Aggrecanase 2 in vitro enzyme assay (Agg-2 FRET, quenched fluorescent peptide substrate); format: biochemical; set-up: purified recombinant human Aggrecanase-2 Agg2-Phe628 (MW=41,737); This is a truncated form of full-length human aggrecanase-2; made in house; host or cells: CHO cells; conditions: for Agg-2 FRET Median PCT INHIB: concentration not given
T1 sequence (Q9UNA0 262-628 limits assumed): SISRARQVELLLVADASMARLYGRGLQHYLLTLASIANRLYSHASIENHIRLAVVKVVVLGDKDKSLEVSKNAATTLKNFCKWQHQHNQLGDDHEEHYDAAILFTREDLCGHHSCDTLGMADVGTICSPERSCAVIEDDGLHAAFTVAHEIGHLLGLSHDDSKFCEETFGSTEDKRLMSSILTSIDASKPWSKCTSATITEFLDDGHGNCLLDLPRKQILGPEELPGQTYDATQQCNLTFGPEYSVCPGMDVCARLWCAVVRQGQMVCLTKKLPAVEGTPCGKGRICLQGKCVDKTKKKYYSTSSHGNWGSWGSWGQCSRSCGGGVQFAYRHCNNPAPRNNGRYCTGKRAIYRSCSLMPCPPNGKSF
Procedure, shortened: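 Continuous FRET assay with purified truncated human Aggrecanase-2 Agg2-Phe628 (CHO-expressed, 0.5 μg/ml final) and brevican-derived Abz/Dnp peptide (25 μM final) in 50 mM HEPES pH 7.5, 100 mM NaCl, 5 mM CaCl2, 0.1% CHAPS, 5% glycerol. Enzyme preincubated with compound before substrate; fluorescence (ex 340/em 420 nm) followed kinetically 40 min at 30 °C.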

[2] = target: T2, Agg-1 (Homo sapiens, UniProt O75173); experiment: Agg-1 FRET assay; format: biochemical; conditions: for inhibition at 22.2 µM: @ 22200 nM
T2 sequence (O75173 213-837): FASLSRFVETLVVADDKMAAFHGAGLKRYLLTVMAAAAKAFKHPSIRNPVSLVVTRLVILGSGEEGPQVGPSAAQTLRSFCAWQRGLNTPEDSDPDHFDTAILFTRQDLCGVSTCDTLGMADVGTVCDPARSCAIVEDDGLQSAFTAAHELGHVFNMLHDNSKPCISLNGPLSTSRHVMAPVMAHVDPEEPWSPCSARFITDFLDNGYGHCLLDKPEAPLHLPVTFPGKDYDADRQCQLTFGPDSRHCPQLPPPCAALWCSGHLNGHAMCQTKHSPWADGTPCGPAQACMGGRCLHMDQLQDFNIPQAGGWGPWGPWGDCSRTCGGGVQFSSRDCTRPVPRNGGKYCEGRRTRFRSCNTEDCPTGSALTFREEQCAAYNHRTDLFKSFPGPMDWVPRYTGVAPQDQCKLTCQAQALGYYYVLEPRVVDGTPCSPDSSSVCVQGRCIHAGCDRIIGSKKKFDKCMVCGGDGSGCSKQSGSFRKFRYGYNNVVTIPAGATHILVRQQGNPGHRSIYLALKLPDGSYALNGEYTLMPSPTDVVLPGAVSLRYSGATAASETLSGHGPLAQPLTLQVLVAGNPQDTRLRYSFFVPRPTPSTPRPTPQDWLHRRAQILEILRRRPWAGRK
Excerpt: The Agg-1/Agg-2 FRET data for N-[(8-hydroxyquinolin-2-yl)(phenyl)methyl]-2-phenoxyacetamide and 2-{[(phenoxyacetyl)amino](phenyl)methyl}quinolin-8-yl phenoxyacetate is presented in Table 1.

[3] = read-out: Agg-2 FRET Median IC50
[4] = read-out: Agg-2 IC50 (μM) or % Inhibition

| SMILES | IC50 ([1]; read-out: Agg2 IC50) | IC50 ([2]; read-out: Agg1 IC50) | further results |
| --- | --- | --- | --- |
| O=C(COc1ccccc1)NC(c1cccc(OCc2ccccc2)c1)c1cc(Cl)c2cccnc2c1O (stereo not drawn) [N-[[3-(benzyloxy)phenyl](5-chloro-8-hydroxyquinolin-7-yl)methyl]-2-phenoxyacetamide] |  |  | inhibition at 3.7 µM ([1]; @ 3700 nM): 48%; inhibition at 22.2 µM ([2]; read-out: Agg1 %): 47% |
| O=C(COc1ccccc1)NC(c1ccccc1)c1cc(N2CCCC2)c2cccnc2c1O (stereo not drawn) [N-[(8-hydroxy-5-pyrrolidin-1-ylquinolin-7-yl)(phenyl)methyl]-2-phenoxyacetamide] | 10.5 µM |  | IC50 [1, 3]: 10.5 µM; inhibition at 22.2 µM ([2]; read-out: Agg1 %): 49% |
| CCN(CC)c1ccc(C(NC(=O)COc2ccccc2)c2cc(Cl)c3cccnc3c2O)cc1 (stereo not drawn) [Example 135, N-{(5-chloro-8-hydroxyquinolin-7-yl)[4-(diethylamino)phenyl]methyl}-2-phenoxyacetamide] | 2.8 µM | 22 to 67 µM |  |
| O=C(COc1ccccc1)NC(c1cc(Cl)c2cccnc2c1O)c1cccc2cccnc12 (stereo not drawn) [N-[(5-chloro-8-hydroxyquinolin-7-yl)(quinolin-8-yl)methyl]-2-phenoxyacetamide] | 2.2 µM |  | inhibition at 22 µM ([2]; @ 22000 nM, read-out: Agg1 %): 55% |
| Cc1ccc(-c2cccc(C(Cc3cc(Cl)c4cccnc4c3O)NC(=O)COc3ccc(C(C)(C)C)cc3)c2)s1 (stereo not drawn) |  |  | inhibition at 200 µM [1, 4]: 56%; inhibition at 22 µM ([2]; read-out: Agg-1 IC50 (μM) or % Inhibition): 46% |
| O=C(COc1ccccc1)NC(c1cc2c(cc1Cl)OCO2)c1cc(Cl)c2cccnc2c1O (stereo not drawn) [N-[(6-chloro-1,3-benzodioxol-5-yl)(5-chloro-8-hydroxyquinolin-7-yl)methyl]-2-phenoxyacetamide] | 1.37 µM | > 30 µM | IC50 [1, 3]: 1.37 µM |
| O=C(CNCc1ccccn1)NC(c1ccccc1)c1cc(Cl)c2cccnc2c1O (stereo not drawn) [Example 227, N-[(5-chloro-8-hydroxyquinolin-7-yl)(phenyl)methyl]-N2-(pyridin-2-ylmethyl)glycinamide] | 3.87 µM | > 50 µM |  |
| COc1ccc(C(NC(=O)COc2ccccc2)c2cc(Cl)c3cccnc3c2O)cc1OC (stereo not drawn) [N-[(5-chloro-8-hydroxyquinolin-7-yl)(3,4-dimethoxyphenyl)methyl]-2-phenoxyacetamide] |  | > 1.5 µM | IC50 [1, 3]: 1.06 µM and 5.19 µM |
| COc1cc(OC)cc(OCC(=O)NC(c2ccccc2Cl)c2cc(Cl)c3cccnc3c2O)c1 (stereo not drawn) [N-[(5-chloro-8-hydroxyquinolin-7-yl)(2-chlorophenyl)methyl]-2-(3,5-dimethoxyphenoxy)acetamide] | 1 µM | ~22 µM |  |
| O=C(COc1ccccc1)NC(c1cc2ccccc2o1)c1cc(Cl)c2cccnc2c1O (stereo not drawn) [Example 168, N-[1-benzofuran-2-yl(5-chloro-8-hydroxyquinolin-7-yl)methyl]-2-phenoxyacetamide] | 0.4 to 1.2 µM |  | inhibition at 66.7 µM ([2]; @ 66700 nM, read-out: Agg1 %): 49% |
| CCCCC#Cc1ccc(C(NC(=O)COc2ccccc2)c2cc(Cl)c3cccnc3c2O)cc1 (stereo not drawn) [N-[(5-chloro-8-hydroxyquinolin-7-yl)(4-hex-1-yn-1-ylphenyl)methyl]-2-phenoxyacetamide] |  |  | inhibition at 33.3 µM ([1]; @ 33300 nM): 48%; inhibition at 50 µM ([2]; @ 50000 nM, read-out: Agg1 %): 47% |
| O=C(COc1ccccc1)NC(c1ccccc1)c1cc(Cl)c2ccccc2c1O (stereo not drawn) [N-[(4-chloro-1-hydroxy-2-naphthyl)(phenyl)methyl]-2-phenoxyacetamide] | > 67 µM | > 22 µM | Agg-2 FRET Median PCT INHIB [1]: 31% |
| Cn1c(C(NC(=O)COc2ccccc2)c2cc(Cl)c3cccnc3c2O)cc2ccccc21 (stereo not drawn) [N-[(5-chloro-8-hydroxyquinolin-7-yl)(1-methyl-1H-indol-2-yl)methyl]-2-phenoxyacetamide] |  |  | inhibition at […] ([1]; @ 2500 nM): 57%; inhibition at 11 µM ([2]; @ 11000 nM, read-out: Agg1 %): 48% |
| CC(C)(Oc1ccc(Cl)cc1)C(=O)NC(Cc1cc(Cl)c2cccnc2c1O)c1cccc(CN2CCCC2)c1 (stereo not drawn) |  |  | inhibition at 22 µM [1, 4]: 49%; inhibition at 66.7 µM ([2]; % inhibition @ 66.7 μM, read-out: Agg-1 IC50 (μM) or % Inhibition): 50% |
| O=C(COc1ccccc1)NC(C1=CCCCC1)c1cc(Cl)c2cccnc2c1O (stereo not drawn) [N-[(5-chloro-8-hydroxyquinolin-7-yl)(cyclohex-1-en-1-yl)methyl]-2-phenoxyacetamide] |  | 1 to 8 µM | inhibition at […] ([1]; @ 1900 nM): 42% |
| O=C(NC(c1ccco1)c1cc(Cl)c2cccnc2c1O)OCc1ccccc1 (stereo not drawn) [benzyl [(5-chloro-8-hydroxyquinolin-7-yl)(2-furyl)methyl]carbamate] | > 20 µM | > 20 µM | Agg-2 FRET Median PCT INHIB [1]: 33% |
| COc1ccc2cc(C(NC(=O)COc3ccccc3)c3cc(Cl)c4cccnc4c3O)ccc2c1 (stereo not drawn) [Example 165, N-[(5-chloro-8-hydroxyquinolin-7-yl)(6-methoxy-2-naphthyl)methyl]-2-phenoxyacetamide] | 2.3 µM |  | inhibition at 22.2 µM ([2]; read-out: Agg1 %): 50% |
| O=C(CNCc1cccc2ccccc12)NC(c1ccccc1Cl)c1cc(Cl)c2cccnc2c1O (stereo not drawn) [Example 231, N-[(5-chloro-8-hydroxyquinolin-7-yl)(2-chlorophenyl)methyl]-N2-(1-naphthylmethyl)glycinamide] | 1.37 µM | ~20 µM |  |
| O=C(NC(Cc1cc(Cl)c2cccnc2c1O)c1cccc(CN2CCCC2)c1)c1ccc(-c2ccccc2)cc1 (stereo not drawn) [drawing 58] |  |  | IC50 ([1]; IC50, read-out: Agg-2 IC50 (μM) or % Inhibition): 3.4 µM; IC50 ([2]; IC50, read-out: Agg-1 IC50 (μM) or % Inhibition): 5.9 µM |
| O=C(CNCc1ccc(-c2ccccc2)cc1)NC(c1ccccc1)c1cc(Cl)c2cccnc2c1O (stereo not drawn) [Example 230, N^2-(biphenyl-4-ylmethyl)-N-[(5-chloro-8-hydroxyquinolin-7-yl)(phenyl)methyl]glycinamide] | 1.29 µM | > 20 µM |  |
| O=C(COc1ccccc1)NC(c1cc(Cl)c2cccnc2c1O)c1cccc2cc[nH]c12 (stereo not drawn) [N-[(5-chloro-8-hydroxyquinolin-7-yl)(1H-indol-7-yl)methyl]-2-phenoxyacetamide] |  |  | inhibition at […] ([1]; @ 1900 nM): 69%; inhibition at 7.4 µM ([2]; @ 7400 nM, read-out: Agg1 %): 48% |
| O=C(COc1ccc(-c2ccccc2)cc1)NC(c1ccccc1Cl)c1cc(Cl)c2cccnc2c1O (stereo not drawn) [2-(biphenyl-4-yloxy)-N-[(5-chloro-8-hydroxyquinolin-7-yl)(2-chlorophenyl)methyl]acetamide] | 3.3 µM | 66 to 200 µM |  |
| O=C(COc1ccc2c(c1)OCO2)NC(c1ccccc1Cl)c1cc(Cl)c2cccnc2c1O (stereo not drawn) [Example 221, 2-(1,3-benzodioxol-5-yloxy)-N-[(5-chloro-8-hydroxyquinolin-7-yl)(2-chlorophenyl)methyl]acetamide] | 1 µM | 7.4 to 20 µM |  |
| O=C(COc1ccccc1)NC(CCc1ccccc1)c1cc(Cl)c2cccnc2c1O (stereo not drawn) [N-[1-(5-chloro-8-hydroxyquinolin-7-yl)-3-phenylpropyl]-2-phenoxyacetamide] | 1.7 µM |  | inhibition at 22 µM ([2]; @ 22000 nM, read-out: Agg1 %): 56% |
| CC(=O)Nc1cccc(C(NC(=O)COc2ccccc2)c2cc(Cl)c3cccnc3c2O)c1 (stereo not drawn) [Example 204, N-[[3-(acetylamino)phenyl](5-chloro-8-hydroxyquinolin-7-yl)methyl]-2-phenoxyacetamide] | 3.76 µM | > 20 µM | IC50 [1, 3]: 3.76 µM |
| Cc1ccc(Oc2cccc(C(NC(=O)COc3ccccc3)c3cc(Cl)c4cccnc4c3O)c2)cc1 (stereo not drawn) [Example 130, N-{(5-chloro-8-hydroxyquinolin-7-yl)[3-(4-methylphenoxy)phenyl]methyl}-2-phenoxyacetamide] |  |  | inhibition at 7.4 µM ([1]; @ 7400 nM): 58%; inhibition at 22 µM ([2]; @ 22000 nM, read-out: Agg1 %): 52% |
| CN(C)c1cc(C(NC(=O)COc2ccccc2)c2ccccc2)c(O)c2ncccc12 (stereo not drawn) [N-[[5-(dimethylamino)-8-hydroxyquinolin-7-yl](phenyl)methyl]-2-phenoxyacetamide] | 33.3 to 100 µM | ~25 µM | Agg-2 FRET Median PCT INHIB [1]: 58% |
